The subject of one data set is B16.F10 melanoma cells. The data set is described as follows: Surface calreticulin expression (immunogenic cell death) by flow cytometry. It is filed as cell-based, mouse (C57BL/6). The settings on record: 24 hours of treatment. The protocol: B16.F10 melanoma cells were plated at 1.5-2.0×10^5 cells per well in 24-well plates in RPMI-1640 medium containing standard supplements and 10% fetal bovine serum (FBS) and incubated overnight at 37° C., 5% CO2. Compounds solubilized in dimethyl sulfoxide (DMSO) were added at the indicated concentrations and incubated for a further 24 hours at 37° C., 5% CO2. Control wells were treated with similar dilutions of DMSO. Cells were trypsinized and washed with FACS buffer (2% FBS+0.1% NaN3 in PBS) and seeded at 1-2×10^5 per well in 96-well round-bottom plates. Cells were stained with rabbit anti-calreticulin polyclonal antibody (1:100, Abcam ab2907) in FACS buffer for 30 minutes at 4° C. Following two washes, cells were labeled with goat anti-rabbit Alexa Fluor 488 (1:500, Thermo Fisher A11070) in FACS buffer for 30 minutes at 4° C. Cells were washed twice and labeled with 7-aminoactinomyosin D in order to exclude non-viable cells. Samples were immediately run on a BD LSR Fortessa flow cytometer and the data analyzed using FlowJo software.
(§1) Differences in tumor growth curves were evaluated by linear mixed models for longitudinal analysis and Kaplan-Meier survival curves were evaluated by log rank test. Differences in calreticulin expression were determined by two-way ANOVA with Bonferroni post-test. All data were analyzed using Graphpad Prism (version 7) or SAS (version 9.4) software.

The next data set has as its system B16.F10 tumors. Nature of the data set: In vivo tumor growth, survival and regression in the B16.F10 melanoma model with anti-PD-1 therapy. More on the design: species or system C57BL/6J mice. As to the method: Groups of 8-week old C57BL/6J female mice were inoculated with 1×10^5 freshly cultured B16.F10 tumor cells subcutaneously in the left flank. Mice were monitored for the development of tumors and when palpable were randomized into groups. Mice received αPD-1 (clone RMP1-14; BioXCell) or control rat IgG (Sigma) at 200 μg/day intraperitoneally in a volume of 200 μl PBS twice per week for 3 weeks. Mice received daily TTI-4242 or TTI-3114 at 30 mg/kg/day or vehicle only for 5 consecutive days in a total volume of 100 μL. Tumors were measured with digital calipers and the tumor volume calculated as (length×width^2)/2. Mice were euthanized when the tumor volume exceeded 1500 mm^3, developed ascites or necrosis, or when mice became lethargic.
as §1

Data set [1] can be described thus: Tolerability / maximum tolerated dosage. The settings on record: in vivo. The protocol:
TTI-7106 is used for these experiments near the maximum tolerated dosage (MTD) of 40 mg/kg. […] TTI-7106 is authenticated in batches based on the NMR spectroscopy and mass spectrometry. All experiments are carried out on equal groups of male and female mice.

SMILES strings stand for the structures.

As to `COc1cc(/C=C/c2cc(O)c3c(c2)C[C@@H]2C(C)(C)[C@H](O)CC[C@@]2(C)O3)cc2c1ccn2C` [TTI-4242], in the data set on B16.F10 melanoma cells, the “concentration at which high levels of surface calreticulin expression are induced” value is on record as “below 2 nM”. In addition, the “induction of surface calreticulin” value with B16.F10 melanoma cells (flow cytometry) was “induced surface calreticulin”. Moreover, the “tumors / mice showing initial tumor regression” value in the data set with B16.F10 tumors (during the period of schweinfurthin administration) stood at 50%. For the same compound, the “tumor growth (rate / delay)” value with B16.F10 tumors (established s.c. B16.F10 tumors, schweinfurthin 30 mg/kg/day for 5 consecutive days, αPD-1 200 μg i.p. twice per week for 3 weeks) is “neither αPD-1 alone (FIG. 2C) nor TTI-4242 alone (FIG. 2D) impacted tumor growth rate”. The “maximum tolerated dosage (MTD)” value in data set [1] is “nearly identical MTD”. For the same compound, the toxicity entry in data set [1] (30 mg/kg) was “low toxicity”.
The compound `COc1cc(/C=C/c2cc(O)c3c(c2)C[C@@H]2C(C)(C)[C@H](O)CC[C@@]2(C)O3)cc(O)c1/C=C/c1c(C)noc1C` [TTI-7106] gave an MTD in data set [1] (both sexes, mouse) of 40 mg/kg.

(Values after patent US12427133B2, “Combination therapies comprising schweinfurthin compounds for treating cancer” (The Penn State Research Foundation, priority 2018, dated 2025).)
